We go through eleven molecules from patent publication US6737410B1, “Inhibitors of protein farnesyl transferase” (Warner-Lambert Company, priority 1997, dated 2004).

Each structure is given as a SMILES string. Where two headings read alike, the source gives them in different places.

The subject of experiment [1] is H61 cells: N1H transformed 3T3 H-ras cells. Description: Clonogenic assay (soft agar, 6 well plates). Type of experiment: cell-based. The conditions noted are these: H-ras transformed NIH 3T3 cells, colonies counted after Day 13, read-out: Soft Agar IC50 (μM), inhibition of colony formation. The method, then:
Clonogenic Assay (6 Well Plates)
Sometime previous to setting up an actual test:
1. Make up 1.5% Bacto Agar in Milli-Q water and autoclave.
2. Make up 500 mL 2×DMEM-HG without phenol red by combining the following:
1 bottle DMEM base powder (Sigma D-5030)
Adjust pH to 7.1 with HCl; filter sterilize.
1. Set up makeshift water bath (beaker of water with thermometer, on hot plate) in the hood. Keep water temperature between 37° C. to 43° C.
2. […] 1.5% Bacto Agar for approximately 2 minutes on high, or until completely melted. Then let it cool somewhat before using it. (You can keep it from resolidifying by setting the bottle on the hot plate.)
Depending on the volume of each layer needed, use either 50 mL conical tubes or 200 mL turnip tubes which can be floated in the “water bath”.
4. Add 1 mL of bottom layer agar/medium to each well: deliver 1 mL warm agar/medium to a well; then using the tip of the pipet, spread the agar/medium around to completely cover the bottom. Repeat with next well.
5. Allow the plates to set at room temperature for about 5 minutes until the bottom layer solidifies.
6. Label sterile Falcon 2054 (12×75 mm) tubes and add appropriate volume of drug solutions into them.
7. Aliquot 4 μL of DMSO or drug solution per 1 mL of agar/medium to appropriate tubes; then add the agar/medium/cells to each tube. Always add 1 mL more than will actually be needed. Mix up and down in the pipet (gently); then deliver 1 mL to the center of each well. The upper layer is less viscous, so it will generally spread out over the bottom layer unaided. If necessary, rotate the plane of the plate gently to spread the top layer evenly over the bottom layer.
8. Let plates set for 5 or 10 minutes at room temperature to solidify, then put into 5% CO2, 37° C. incubator.
9. On Day 13, add 0.5 mL of INT (tetrazolium 1 mg/mL in Milli-Q H2O, filter sterilized) and return plates to incubator.

Experiment [2] has as its target T1, SF9 affinity purified rat farnesyl protein transferase (Rattus norvegicus, UniProt Q02293+Q04631).
T1 construct: made in house; host or cells: Sf9 insect cells
Description: PFT (farnesyl protein transferase) inhibitory activity assay. Type of experiment: biochemical. The method, then: The protein:farnesyl transferase (PFT) or farnesyl protein transferase (FPT) inhibitory activity of compounds of the present invention were assayed in HEPES buffer (pH 7.4) containing 5 mM potassium phosphate and 20 μM ZnCl2. The solution also contained 5 mM DTT (dithiothreitol), 5 mM MgCl2, and 0.1% PEG 8000. Assays were performed in 96-well plates (Wallec) and employed solutions composed of varying concentrations of a compound of the present invention in 100% DMSO (dimethylsulfoxide). Upon addition of both substrates, radiolabeled farnesyl pyrophosphate ([1^3H], specific activity 15 to 30 Ci/mmol, final concentration 134 nM) and (biotinyl)-Ahe-Thr-Lys-Cys-Val-Ile-Met ([3aS[3a alpha, 4 beta, 6a alpha]-hexahydro-2-oxo-1H-thieno[3,4-d]imidazole-5-pentanoic acid]-[7-aminoheptanoic acid]-Thr-Lys-Cys-Val-Ile-Met) (Ahe is 7-amino-heptanoic acid, Thr is threonine, Lys is lysine, Cys is cysteine, Val is valine, Ile is isoleucine and Met is methionine) (final concentration 0.2 μM), the enzyme reaction was started by addition of SF9 affinity purified rat farnesyl protein transferase. After incubation at 30° C. for 30 minutes, the reaction was terminated by diluting the reaction 2.5-fold with a stop buffer containing 1.5 M magnesium acetate, 0.2 M H3PO4, 0.5% BSA (bovine serum albumin), and strepavidin beads (Amersham) at a concentration of 1.3 mg/mL. After allowing the plate to settle for 30 minutes at room temperature, radioactivity was quantitated on a microBeta counter (Model 1450, Wallec). The assay was also carried out without 5 mM potassium phosphate.

Experiment [3] relates to ras protein farnesylation in ras-transformed cells (H-ras-transformed HIH 3T3 cells). Description: Gel shift assay (inhibition of ras farnesylation in cells). Type of experiment: cell-based. The conditions noted are these: for Gel Shift (μM) M.E.D* (minimal effective dose to observe inhibition of ras farnesylation): ras-transformed cells, 18-hour incubation. As for the experimental part:
Twenty-four hours after planting 2×10^6 ras-transformed cells per treatment condition, the farnesylation inhibitor is added at varying concentrations. Following an 18-hour incubation period, cells are lysed in phosphate-buffered saline containing 1% Triton X-100, 0.5% sodium deoxycholate, and 0.1% SDS (sodium dodecyl sulfate), pH 7.4 in the presence of several protease inhibitors (PMSF (phenylmethylsulfonylfluoride), antipain, leupeptin, pepstatin A, and aprotinin all at 1 μg/mL). Ras protein is immunoprecipitated from the supernatants by the addition of 3 μg v-H-ras Ab-2 (Y13-259 antibody from Oncogene Science). After overnight immunoprecipitation, 30 μL of a 50% protein G-Sepharose slurry (Pharmacia) is added followed by 45-minute incubation. Pellets are resuspended in 2×tris-glycine loading buffer (Novex) containing 5% β-mercaptoethanol and then denatured by 5 minutes boiling prior to electrophoresis on 14% Tris-glycine SDS gels. Using Western transfer techniques, proteins are transferred to nitrocellulose membranes followed by blocking in blocking buffer. Upon overnight incubation with primary antibody (pan-ras Ab-2 from Oncogene Science), an antimouse HRP (horse radish peroxidase) conjugate secondary antibody (Amersham) is employed for detection of the ras protein. Blots are developed using ECL(enhanced chemiluminescence) techniques (Amersham).

The test system of experiment [4] is EJ-1 human bladder carcinoma, HT1080 human fibrosarcoma, and human colon carcinoma xenografts. The note with it: 100 mg/kg, nude mice; cited from earlier work.
Experiment [5] relates to human lung carcinoma with K-ras mutation and p53 deletion. The conditions noted are these: nude mice; cited from earlier work.
Experiment [6] deals with mammary and salivary carcinomas. The conditions noted are these: daily administration, ras transgenic mice; cited from earlier work.
The mark [7] stands for this setting: HEPES buffer pH 7.4, without 5 mM potassium phosphate, read-out: IC50 (μM) Hepes.
[8] abbreviates: HEPES buffer pH 7.4 containing 5 mM potassium phosphate, read-out: IC50 (μM) 5 mM PO4•^2 Hepes.
[9] abbreviates: Example 2 compared with Example 1.

Consider `CN(C(=O)[C@@H](Cc1c[nH]cn1)NC(=O)OCc1ccccc1)[C@@H](Cc1ccc(OCc2ccccc2)cc1)C(=O)NCCOCc1ccccc1` (relative stereo) [Example 1, [R-(R*,S*)]-[1-{[1-(2-Benzyloxy-ethylcarbamoyl)-2-(4-benzyloxy-phenyl)-ethyl]-methyl-carbamoyl}-2-(1H-imidazol-4-yl)-ethyl]-carbamic acid benzyl ester], for which the IC50 in experiment [1] was determined as 15.1 µM; in experiment [2] (setting [7]), 7 µM; in experiment [2] (setting [8]) it was 0.4 µM. Besides, in experiment [2] (stated in words), the “activity as a ras farnesyl transferase inhibitor” value is given as “submicromolar”. The “Gel Shift (μM) M.E.D* (minimal effective dose to observe inhibition of ras farnesylation)” value in experiment [3] was 1 µM.
Turning to `CN(C(=O)[C@H](Cc1c[nH]cn1)NC(=O)OCc1ccccc1)[C@@H](Cc1ccc(OCc2ccccc2)cc1)C(=O)NCCc1ccccc1` (relative stereo) [Example 2, [S-(R*,R*)]-[1-{[2-(4-Benzyloxy-phenyl)-1-phenethylcarbamoyl-ethyl]-methyl-carbamoyl}-2-(1H-imidazol-4-yl)-ethyl]-carbamic acid benzyl ester], the IC50 in experiment [1] worked out at 0.58 µM; in experiment [2] (setting [7]), 1.4 µM; in experiment [2] (setting [8]), 0.032 µM. Also, the “increase in activity against the enzyme” value in experiment [2] (setting [9]) came out at 10 fold. Further, the “increase in cellular activity” value in experiment [3] (setting [9]) is 5 fold. In experiment [3], the “Gel Shift (μM) M.E.D* (minimal effective dose to observe inhibition of ras farnesylation)” value was 0.2 µM.
In the case of `CN(C(=O)[C@H](Cc1cnc[nH]1)NC(=O)OCc1ccccc1)[C@@H](Cc1ccc(OCc2ccccc2)cc1)C(=O)NCC1(c2ccccc2)CCC1` (relative stereo) [Example 6, [S-(R*,R*)]-[1-{[2-4-Benzyloxy-phenyl)-1-[(1-phenyl-cyclobutylmethyl)-carbamoyl]-ethyl}-methyl-carbamoyl)-2-(3H-imidazol-4-yl)-ethyl]-carbamic acid benzyl ester], the IC50 in experiment [2] (setting [7]) was 1.01 µM; in experiment [2] (setting [8]) it was 0.013 µM. For the same molecule, the “Gel Shift (μM) M.E.D* (minimal effective dose to observe inhibition of ras farnesylation)” value in experiment [3] was “≦0.05 μM”.
As for `CN(C(=O)[C@H](Cc1c[nH]cn1)NC(=O)OCc1ccccc1)[C@@H](Cc1ccc(OCc2ccccc2)cc1)C(=O)NCC(C)(C)c1ccccc1` [Example 3, [S-(R*,R*)]-[1-{[2-(4-Benzyloxy-phenyl)-1-(2-methyl-2-phenyl-propylcarbamoyl)-ethyl]-methyl-carbamoyl}-2-(1H-imidazol-4-yl)-ethyl]-carbamic acid benzyl ester], the IC50 was 0.1 µM in experiment [1] (Mus musculus, NIH3T3, 312 h); 0.31 µM in experiment [2] (setting [7]); 0.007 µM in experiment [2] (setting [8]). Moreover, the “Gel Shift (μM) M.E.D* (minimal effective dose to observe inhibition of ras farnesylation)” value in experiment [3] stood at 0.05 µM.
For the molecule `CN(C(=O)[C@H](Cc1c[nH]cn1)NC(=O)OCc1ccccc1)[C@@H](Cc1ccc(OCc2ccccn2)cc1)C(=O)NCC(C)(C)c1ccccc1` [Example 4, [S-(R*,R*)]-[2-(1H-Imidazol-4-yl)-1-(methyl-{1-(2-methyl-2-phenyl-propylcarbamoyl)-2-[4-(pyridin-2-ylmethoxy)-phenyl]-ethyl}-carbamoyl)-ethyl]-carbamic acid benzyl ester], the IC50 in experiment [2] (setting [7]) was found to be 0.38 µM; in experiment [2] (setting [8]) it was 0.006 µM. The “Gel Shift (μM) M.E.D* (minimal effective dose to observe inhibition of ras farnesylation)” value in experiment [3] is “≦0.05 μM”.
With `CN(Cc1ccccc1)C(=O)N[C@@H](Cc1c[nH]cn1)C(=O)N(C)[C@@H](Cc1ccc(OCc2ccccc2)cc1)C(=O)NCC(C)(C)c1ccccc1` [Example 5, [S-(R*,R*)]-2(3-Benzyl-3-methyl-ureido)-N-[2-(4-benzyloxy-phenyl)-1-(2-methyl-2-phenyl-propyl-carbamoyl)-ethyl]-3-(1H-imidazol-4-yl)-N-methyl-propionamide], the values for the 50% inhibitory concentration (IC50) in experiment [2] (setting [7]) and in experiment [2] (setting [8]) were 0.012 µM and 0.008 µM, respectively. In addition, the “Gel Shift (μM) M.E.D* (minimal effective dose to observe inhibition of ras farnesylation)” value in experiment [3] was “≦0.05 μM”.
The like results for `CN(C(=O)[C@H](Cc1cnc[nH]1)NC(=O)OCc1ccccc1)[C@@H](Cc1ccccc1)C(=O)NCC(C)(C)c1ccccc1` [Example 7, [S-(R*,R*)]-(2-(3H-Imidazol-4-yl)-1-{methyl-[1-(2-methyl-2-phenyl-propyl-carbamoyl)-2-phenyl-ethyl]-carbamoyl}-ethyl)-carbamic acid benzyl ester] were, in that order, 0.26 µM, 0.005 µM and “≦0.05 μM”.
In the same order, the values of `CC(C)C[C@@H](C(=O)NCC(C)(C)c1ccccc1)N(C)C(=O)[C@H](Cc1cnc[nH]1)NC(=O)OCc1ccccc1` [Example 8, [S-(R*,R*)]-(2-(3H-Imidazol-4-yl)-1-{methyl-[3-methyl-1-(2-methyl-2-phenyl-propylcarbamoyl)-butyl]-carbamoyl}-ethyl)-carbamic acid benzyl ester] are 1.76 µM, 0.01 µM and “≦0.05 μM”.
Take `COC(=O)[C@H](CCSC)NC(=O)[C@H](/C=C\[C@@H](/C=C/[C@@H](N)CS)C(C)C)Cc1ccccc1` [Example B1086]: the “tumor growth by xenografts” value in experiment [4] is reported as “inhibit tumor growth”.
As to `CSCC[C@H](NC(=O)c1ccc(NC[C@@H](N)CS)cc1-c1ccccc1)C(=O)O` [FT1276], in experiment [5], the “tumor growth of human lung carcinoma” value is recorded as “selectively block tumor growth”.
Regarding `CC[C@H](C)[C@@H](CO[C@@H](Cc1ccccc1)C(=O)N[C@@H](CCS(C)(=O)=O)C(=O)OC(C)C)NC[C@@H](N)CS` [L744,832], the “effect on mammary and salivary carcinomas” value in experiment [6] was “tumor regression”.
